Data reported in patent US20260070902A1, “SULFONYL DERIVATIVES AS CCR6 INHIBITORS” (Hoffmann-La Roche Inc., priority 2022, published 2026).

Experiments:
human CCR6 [1] = target: T1, human CCR6 (Homo sapiens, UniProt P51684); assay: CHO-K1 CCR6 chemotaxis assay towards CCL20; assay type: cell-based; conditions: relative -Log IC50; CHO-K1 cells overexpressing human CCR6; migration towards 100 ng/ml CCL20; 4 h
T1 sequence (P51684 1-374): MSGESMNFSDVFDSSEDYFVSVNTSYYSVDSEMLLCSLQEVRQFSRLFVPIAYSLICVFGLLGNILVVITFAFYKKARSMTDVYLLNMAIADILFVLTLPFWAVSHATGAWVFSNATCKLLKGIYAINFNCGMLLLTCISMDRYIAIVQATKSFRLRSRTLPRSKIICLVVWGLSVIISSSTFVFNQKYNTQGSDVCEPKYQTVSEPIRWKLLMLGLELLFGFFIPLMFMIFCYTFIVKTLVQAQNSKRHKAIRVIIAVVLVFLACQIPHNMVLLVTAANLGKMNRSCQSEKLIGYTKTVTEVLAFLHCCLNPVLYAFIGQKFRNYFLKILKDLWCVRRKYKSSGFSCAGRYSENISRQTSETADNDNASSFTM
Description: CHO-K1 CCR6 Chemotaxis Assay Towards CCL20
Cells overexpressing human CCR6 were used in the chemotaxis assay (DiscoverX, cAMP Hunter™ CHO-K1 CCR6 Gi Cell Line). Growth medium of these cells consisted of DMEM/F12, non-essential Amino acids (1×NEAA, Gibco 11140050), 10% FBS and 1× pen/strep (Gibco 15140). For the chemotaxis assay, Corning Transwell plates were used with a pore size of 8 m (Corning 351164). Cells were harvested using trypsin and diluted to 4*10^6 cells/ml in chemotaxis medium (DMEM, 0.25% BSA, pen/strep). Compounds were four-fold serially diluted in DMSO. Further dilutions were made in chemotaxis medium. Cells were incubated with test compounds for 30 min at 37° C. prior to initiation of the assay (2*10^6 cells/ml). Final DMSO concentration in the assay was 0.2%. Wells of the Transwell plates were filled with 200 μl chemotaxis medium containing 100 ng/ml CCL20 (R&D systems 360-MP). 50 μl of the cell/compound suspension was added to the inserts of the Transwell plates (100,000 cells/insert). The Transwell plates were placed in an incubator at 37° C., 5% CO2 for 4 h. After 4 h, the number of migrated cells was quantified using CellTiter Glo (Promega). Percentage inhibition values were calculated based on the low and high signal obtained with 0.2% DMSO in chemotaxis medium without and with CCL20, respectively. The relative −Log IC50 was determined with GraphPad Prism 9 using a four-parameter dose-response model.

human CCR6 [2] = target: T1, human CCR6; assay: Human CCR6-CRE reporter assay; assay type: cell-based; design: The second construct contained the open reading frame of human CCR6 in the pUNO1 backbone; host or cells: 293FT cells; conditions: relative -Log IC50; 293FT cells transfected with human CCR6 and CRE-luciferase reporter; 6 μM Forskolin, 6 nM CCL20; 5 h
Method in brief: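 293FT cells transiently co-transfected with human CCR6 and a CRE-luc2P reporter, used 48 h later. Compounds incubated with cells in medium containing 6 μM Forskolin and 6 nM CCL20 (assay-medium levels), 0.1% DMSO final, 5 h at 37° C; luminescence read, relative −Log IC50 from four-parameter fit.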

IC50 (human CCR6 [1]) [nM] | IC50 (human CCR6 [2]) [nM] | SMILES
7.94 | 158 | O=C1NCCc2ccc(-c3ccc(S(=O)(=O)[C@H]4CC[C@H](Nc5ccc(S(F)(F)(F)(F)F)cc5)CC4)cc3)cc21 [Example 60, 7-(4-{[trans-4-{[4-(pentafluoro-λ^6-sulfanyl)phenyl]Amino}cyclohexyl]sulfonyl}phenyl)-1,2,3,4-tetrahydroisoquinolin-1-one]
31.6 | 126 | O=C1NCCc2cc(-c3ccc(S(=O)(=O)[C@H]4CC[C@H](Nc5ccc(S(F)(F)(F)(F)F)cc5)CC4)cc3)ccc21 [Example 61, 6-(4-{[trans-4-{[4-(pentafluoro-λ^6-sulfanyl)phenyl]Amino}cyclohexyl]sulfonyl}phenyl)-1,2,3,4-tetrahydroisoquinolin-1-one]
12.6 | 39.8 | CC(C)c1cnc2ccc(-c3ccc(S(=O)(=O)[C@H]4CC[C@H](Nc5ccc(S(F)(F)(F)(F)F)cc5)CC4)cc3)cn12 [Example 63, 4-(pentafluoro-λ^6-sulfanyl)-N-[trans-4-{4-[3-(propan-2-yl)imidazo[1,2-a]pyridin-6-yl]benzenesulfonyl}cyclohexyl]aniline]
39.8 | 63.1 | O=c1[nH]nc2ccc(-c3ccc(S(=O)(=O)[C@H]4CC[C@H](Nc5ccc(S(F)(F)(F)(F)F)cc5)CC4)cc3)cn12 [Example 66, 6-(4-{[trans-4-{[4-(pentafluoro-λ^6-sulfanyl)phenyl]Amino}cyclohexyl]sulfonyl}phenyl)-2H,3H-[1,2,4]triazolo[4,3-a]pyridin-3-one]
794 | 794 | Cc1cnc2ccc(-c3ccc(S(=O)(=O)N4CCC(Nc5ccc(S(F)(F)(F)(F)F)cc5)CC4)cn3)cn12 [Example 69, 1-[(6-{3-methylimidazo[1,2-a]pyridin-6-yl}pyridin-3-yl)sulfonyl]-N-[4-(pentafluoro-λ^6-sulfanyl)phenyl]piperidin-4-amine]
631 | 501 | N#Cc1cnc2ccc(-c3ccc(S(=O)(=O)N4CCC(Nc5ccc(S(F)(F)(F)(F)F)cc5)CC4)c(F)c3)cn12 [Example 73, 6-{3-fluoro-4-[(4-{[4-(pentafluoro-λ^6-sulfanyl)phenyl]Amino}piperidin-1-yl)sulfonyl]phenyl}imidazo[1,2-a]pyridine-3-carbonitrile]
794 | 501 | O=S(=O)(c1ccc(-c2ccc3nccn3c2)cc1F)N1CCC(Nc2ccc(S(F)(F)(F)(F)F)cc2)CC1 [Example 74, 1-(2-fluoro-4-{imidazo[1,2-a]pyridin-6-yl}benzenesulfonyl)-N-[4-(pentafluoro-λ^6-sulfanyl)phenyl]piperidin-4-amine]
501 | 794 | N#Cc1cnc2ccc(-c3ccc(S(=O)(=O)N4CCC(Nc5ccc(S(F)(F)(F)(F)F)cc5)CC4)cn3)cn12 [Example 76, 6-{5-[(4-{[4-(pentafluoro-λ^6-sulfanyl)phenyl]Amino}piperidin-1-yl)sulfonyl]pyridin-2-yl}imidazo[1,2-a]pyridine-3-carbonitrile]
126 | 50.1 | CC(C)c1nnc2ccc(-c3ccc(S(=O)(=O)N4CCC(Nc5cccc(S(F)(F)(F)(F)F)c5)CC4)cc3)cn12 [Example 84, N-[3-(pentafluoro-λ^6-sulfanyl)phenyl]-1-{4-[3-(propan-2-yl)-[1,2,4]triazolo[4,3-a]pyridin-6-yl]benzenesulfonyl}piperidin-4-amine]
1580 | 200 | CN(C)C(=O)c1ccc(-c2ccc(S(=N)(=O)[C@H]3CC[C@H](Nc4ccc(S(F)(F)(F)(F)F)cc4)CC3)cc2)cc1 (stereo partly drawn) [Example 92, N,N-dimethyl-4′-{[trans-4-{[4-(pentafluoro-λ^6-sulfanyl)phenyl]Amino}cyclohexyl]sulfonimidoyl}-[1,1′-biphenyl]-4-carboxamide]
501 | 251 | CNC(=O)c1ccc(-c2ccc(S(=N)(=O)[C@H]3CC[C@H](Nc4ccc(S(F)(F)(F)(F)F)cc4)CC3)cc2)cc1 (stereo partly drawn) [Example 95, N-methyl-4′-{[trans-4-{[4-(pentafluoro-λ^6-sulfanyl)phenyl]Amino}cyclohexyl]sulfonimidoyl}-[1,1′-biphenyl]-4-carboxamide]
501 | 158 | N=S(=O)(c1ccc(-c2ccc(C(N)=O)cc2)cc1)[C@H]1CC[C@H](Nc2ccc(S(F)(F)(F)(F)F)cc2)CC1 (stereo partly drawn) [Example 96, 4′-{[trans-4-{[4-(pentafluoro-λ^6-sulfanyl)phenyl]Amino}cyclohexyl]sulfonimidoyl}-[1,1′-biphenyl]-4-carboxamide]
251 | 200 | CNC(=O)c1cccc(-c2ccc(S(=N)(=O)[C@H]3CC[C@H](Nc4ccc(S(F)(F)(F)(F)F)cc4)CC3)cc2)c1 (stereo partly drawn) [Example 98, N-methyl-4′-{[trans-4-{[4-(pentafluoro-λ^6-sulfanyl)phenyl]Amino}cyclohexyl]sulfonimidoyl}-[1,1′-biphenyl]-3-carboxamide]
501 | 200 | N=S(=O)(c1ccc(-c2cccc(C(N)=O)c2)cc1)[C@H]1CC[C@H](Nc2ccc(S(F)(F)(F)(F)F)cc2)CC1 (stereo partly drawn) [Example 99, 4′-{[trans-4-{[4-(pentafluoro-λ^6-sulfanyl)phenyl]Amino}cyclohexyl]sulfonimidoyl}-[1,1′-biphenyl]-3-carboxamide]
794 | 316 | CNC(=O)c1ccc(-c2ccc(S(=N)(=O)[C@H]3CC[C@H](Nc4ccc(S(F)(F)(F)(F)F)cc4)CC3)cc2)cn1 (stereo partly drawn) [Example 101, N-methyl-5-(4-{[trans-4-{[4-(pentafluoro-λ^6-sulfanyl)phenyl]Amino}cyclohexyl]sulfonimidoyl}phenyl)pyridine-2-carboxamide]
631 | 398 | Cc1nnc2ccc(-c3ccc(S(=N)(=O)[C@H]4CC[C@H](Nc5ccc(S(F)(F)(F)(F)F)cc5)CC4)cc3)cn12 (stereo partly drawn) [Example 105, (4-{3-methyl-[1,2,4]triazolo[4,3-a]pyridin-6-yl}phenyl)[trans-4-{[4-(pentafluoro-λ^6-sulfanyl)phenyl]Amino}cyclohexyl](imino)-λ^6-sulfanone]
158 | 251 | CNC(=O)c1ccc(-c2ccc(S(=N)(=O)N3CCC(Nc4ccc(S(F)(F)(F)(F)F)cc4)CC3)cc2)cn1 (stereo not drawn) [Example 121, N-methyl-5-{4-[(4-{[4-(pentafluoro-λ^6-sulfanyl)phenyl]Amino}piperidin-1-yl)sulfonimidoyl]phenyl}pyridine-2-carboxamide]
200 | 251 | N=S(=O)(c1ccc(-c2ccc3c(c2)CC(=O)N3)cc1)N1CCC(Nc2ccc(S(F)(F)(F)(F)F)cc2)CC1 (stereo not drawn) [Example 123, 5-{4-[(4-{[4-(pentafluoro-λ^6-sulfanyl)phenyl]Amino}piperidin-1-yl)sulfonimidoyl]phenyl}-2,3-dihydro-1H-indol-2-one]
126 | 200 | N=S(=O)(c1ccc(-c2ccc3nccn3c2)cc1)N1CCC(Nc2ccc(S(F)(F)(F)(F)F)cc2)CC1 (stereo not drawn) [Example 124, (4-{imidazo[1,2-a]pyridin-6-yl}phenyl)(4-{[4-(pentafluoro-λ^6-sulfanyl)phenyl]Amino}piperidin-1-yl)(imino)-λ^6-sulfanone]
20 | 63.1 | CNC(=O)c1cc(-c2ccc(S(=O)(=O)N3CCC(Nc4ccc(S(F)(F)(F)(F)F)cc4)CC3)cc2)ccc1F [Example 138, 4-fluoro-N-methyl-4′-[(4-{[4-(pentafluoro-λ^6-sulfanyl)phenyl]amino}piperidin-1-yl)sulfonyl]-[1,1′-biphenyl]-3-carboxamide]
10 | 63.1 | CNC(=O)c1ccc(-c2ccc(S(=O)(=O)N3CCC(Nc4ccc(S(F)(F)(F)(F)F)cc4)CC3)cc2)cc1F [Example 139, 3-fluoro-N-methyl-4′-[(4-{[4-(pentafluoro-λ^6-sulfanyl)phenyl]amino}piperidin-1-yl)sulfonyl]-[1,1′-biphenyl]-4-carboxamide]
